In patent publication US9802899B2, “Heterocyclic compounds as pesticides” (BAYER CROPSCIENCE AG, priority 2012, dated 2017):

Assay: Determination of the log P values by HPLC (formic acid method)
Format: physicochemical
Conditions: reversed-phase column (C 18), acidic range (pH 3.4), 55° C.
Description: 1) Description of Method for Determination of the Log P Values (Formic Acid Method)
Eluents for determination in the acidic range (pH 3.4):
Eluent A: acetonitrile+1 ml of formic acid/liter. Eluent B: water+0.9 ml of formic acid/liter.
The lambda max values were determined in the maxima of the chromatographic signals using the UV spectra from 200 nm to 400 nm.

[1] = reversed-phase HPLC column (C 18)

| log P | Structure (SMILES) | also measured |
| --- | --- | --- |
| 2.76 | O=C(Nc1ccn(-c2cncc(F)n2)n1)c1cccnc1C(F)(F)F [Compound I-1-402] |  |
| 3.39 | O=C(Nc1nn(-c2cc(F)cnc2F)c2ccc(F)cc12)c1ccccc1C(F)(F)F [Compound I-5-7] |  |
| 2.35 | O=C(Nc1ccn(-c2c(F)cccc2F)n1)c1cccnc1CC(F)(F)F [Compound I-1-246] |  |
| 2.72 | O=C(Nc1ccn(-c2c(F)cccc2F)n1)c1c(F)cccc1Br [Compound I-1-613] |  |
| 2.53 | Cc1nonc1C(=O)Nc1ccn(-c2c(F)cccc2F)n1 [Compound I-1-116] |  |
| 3.05 | O=C(Nc1ccn(-c2ccccc2Cl)n1)c1ccsc1I [Compound I-1-47] |  |
| 3.40 | O=C(Nc1ccn(-c2cc(Cl)ccc2Cl)n1)c1ccccc1Br [Compound I-1-119] |  |
| 2.38 | O=C(Nc1ccn(-c2ccccc2Cl)n1)c1cccnc1F [Compound I-1-364] |  |
| 1.71 | Cc1nn(C)cc1C(=O)Nc1ccn(-c2c(F)cccc2F)n1 [Compound I-1-107] |  |
| 3.78 | Cc1cc(NC(=O)c2ccccc2C(F)(F)F)nn1-c1ccc(F)cc1F [Compound I-1-202] |  |
|  | Nc1ccn(-c2ncc(F)cc2F)n1 [1-(3,5-Difluoropyridin-2-yl)-1H-pyrazole-3-amine] | chromatographic logP: 0.81 |
| 0.70 | Cn1cncc1C(=O)Nc1ccn(-c2ncc(F)cc2F)n1 [Compound I-1-646] |  |
| 2.61 | CCn1ncc(Br)c1C(=O)Nc1ccn(-c2ncc(F)cc2F)n1 [Compound I-1-518] |  |
| 2.68 | O=C(Nc1ccn(-c2c(F)cccc2F)c1)c1c(F)cccc1F [Compound I-3-2] |  |
|  | Nc1cnn(-c2c(F)cccc2F)n1 [Ex. 21-IX, 2-(2,6-Difluorophenyl)-2H-1,2,3-triazole-4-amine] | chromatographic logP: 1.16 |
| 2.16 | O=C(Nc1ccn(-c2ncccc2F)n1)c1occc1I [Compound I-1-582] |  |
| 2.80 | O=C(Nc1ccn(-c2c(F)cccc2F)n1)c1cc(F)ccc1C(F)(F)F [Compound I-1-331] |  |
| 2.48 | O=C(Nc1ccn(-c2ncc(F)cc2F)n1)c1ccccc1O [Compound I-1-148] |  |
|  | Nc1nn(-c2ccccc2Cl)cc1Cl [4-Chloro-1-(2-chlorophenyl)-1H-pyrazole-3-amine] | chromatographic logP [1]: 2.14 |
| 2.27 | O=C(Nc1cnn(-c2ncc(F)cc2F)n1)c1ccccc1Br [Compound I-2-68] |  |
| 2.30 | O=C(Nc1ccn(-c2ncccc2F)n1)c1ccsc1I [Compound I-1-581] |  |
| 4.15 | Cn1nc(C(C)(C)C)c(Cl)c1C(=O)Nc1ccn(-c2c(F)cccc2F)n1 [Compound I-1-293] |  |
| 2.31 | Cn1cc(C(=O)Nc2ccn(-c3ncc(F)cc3F)n2)c(C(F)(F)F)c1 [Compound I-1-156] |  |
| 2.20 | O=C(Nc1cnn(-c2ccccc2Cl)n1)c1cccnc1Cl [Compound I-2-5] |  |
| 3.00 | O=C(Nc1ccn(-c2ccccc2Cl)n1)c1c(Cl)cccc1Cl [Compound I-1-351] |  |
| 1.83 | Cc1c([N+](=O)[O-])c(C(=O)Nc2ccn(-c3ncc(F)cc3F)n2)nn1C [Compound I-1-448] |  |

| log P | Structure (SMILES) | also measured |
| --- | --- | --- |
| 2.21 | N#Cc1cc(F)ccc1-n1ccc(NC(=O)c2cccnc2C(F)(F)F)n1 [Compound I-1-627] |  |
| 2.55 | O=C(Nc1ccn(-c2c(F)cccc2F)n1)c1ccccc1Cl [Compound I-1-81] |  |
| 2.54 | O=C(Nc1cnn(-c2ccccc2Cl)n1)c1cccnc1C(F)(F)F [Compound I-2-4] |  |
| 3.42 | CCCc1nn(C)c(C(=O)Nc2ccn(-c3ncc(F)cc3F)n2)c1Cl [Compound I-1-531] |  |
| 2.00 | O=C(Nc1ccn(-c2ncc(F)cc2F)n1)c1cnccc1C(F)(F)F [Compound I-1-515] |  |
| 2.74 | O=C(Nc1ccn(-c2c(F)cccc2F)n1)c1c(F)cccc1I [Compound I-1-277] |  |
| 2.12 | COc1ccccc1-n1ccc(NC(=O)c2cccnc2Br)n1 [Compound I-1-409] |  |
| 2.20 | Cn1ncc(I)c1C(=O)Nc1ccn(-c2ncc(F)cc2F)n1 [Compound I-1-540] |  |
|  | N#Cc1ccc(-n2ccc(NC(=O)c3ccccc3C(F)(F)F)n2)nc1Cl [Compound I-1-608, N-[1-(6-Chloro-5-cyanopyridin-2-yl)-1H-pyrazol-3-yl]-2-(trifluoromethyl)benzamide] | chromatographic logP [1]: 3.17 |
| 2.20 | Cc1nn(C)c(C(=O)Nc2ccn(-c3c(F)cccc3F)n2)c1F [Compound I-1-320] |  |
| 2.86 | Cc1cccnc1C(=O)Nc1ccn(-c2c(F)cccc2F)n1 [Compound I-1-90] |  |
| 2.93 | CC(C)c1nn(C)c(C(=O)Nc2ccn(-c3c(F)cccc3F)n2)c1[N+](=O)[O-] [Compound I-1-290] |  |
| 2.16 | O=C(Nc1ccn(-c2c(F)cccc2F)n1)c1ccncc1C(F)(F)F [Compound I-1-97] |  |
|  | Nc1nn(-c2ccccc2Cl)cc1I [4-Iodo-1-(2-chlorophenyl)-1H-pyrazole-3-amine] | chromatographic logP [1]: 2.36 |
| 3.28 | O=C(Nc1cnn(-c2ncc(C(F)(F)F)cc2Cl)n1)c1ccccc1C(F)(F)F [Compound I-2-74] |  |
| 2.60 | O=C(Nc1ccn(-c2c(F)cccc2F)n1)c1ccccc1F [Compound I-1-278] |  |
| 3.05 | O=C(Nc1nn(-c2cc(F)cnc2F)c2ccccc12)c1ccccc1Br [Compound I-5-6] |  |
| 2.64 | O=C(Nc1ccn(-c2c(F)cccc2F)n1)c1occc1I [Compound I-1-288] |  |
|  | CC(=O)Nc1cc(F)c(-n2ccc(NC(=O)c3ccccc3C(F)(F)F)n2)c(F)c1 [Compound I-1-583, N-[1-(4-Acetamido-2,6-difluorophenyl)-1H-pyrazol-3-yl]-2-(trifluoromethyl)benzamide] | chromatographic logP [1]: 2.28 |
| 3.07 | O=C(Nc1ccn(-c2ccccc2Br)n1)c1ccccc1C(F)(F)F [Compound I-1-50] |  |
| 1.82 | Cc1cc(NC(=O)c2ccccc2S(C)(=O)=O)nn1-c1ccccc1Cl [Compound I-1-342] |  |
| 3.16 | Cc1ccsc1C(=O)Nc1ccn(-c2ccccc2Br)n1 [Compound I-1-60] |  |
| 2.90 | O=C(Nc1cnn(-c2c(F)cccc2F)n1)c1ccsc1I [Compound I-2-40] |  |
| 2.93 | CCn1nc(C)c(Br)c1C(=O)Nc1ccn(-c2ncc(F)cc2F)n1 [Compound I-1-519] |  |
| 4.10 | O=C(Nc1ccn(-c2cc(F)c(F)cc2F)n1)c1ccccc1I [Compound I-1-196] |  |
| 2.88 | O=C(Nc1nn(-c2ccccc2Cl)cc1Cl)c1ccccc1Cl [Compound I-1-28] |  |

| log P | Structure (SMILES) | also measured |
| --- | --- | --- |
| 3.07 | O=C(Nc1ccn(-c2cccc(F)c2F)n1)c1ccccc1C(F)(F)F [Compound I-1-62] |  |
| 2.36 | O=C(Nc1cnn(-c2c(F)cccc2F)n1)c1cnccc1C(F)(F)F [Compound I-2-83] |  |
| 2.89 | O=C(Nc1ccn(-c2ncc(Cl)cc2F)n1)c1ccccc1I [Compound I-1-593] |  |
| 3.15 | CCn1nc(C)c(Cl)c1C(=O)Nc1ccn(-c2c(F)cccc2F)n1 [Compound I-1-309] |  |
| 2.72 | O=C(Nc1ccn(-c2cc(F)cnc2F)n1)c1ccccc1C(F)(F)F [Compound I-1-224] |  |
|  | Nc1ccn(-c2ncnc(F)c2F)n1 [1-(5,6-Difluoropyrimidin-4-yl)-1H-pyrazole-3-amine] | chromatographic logP [1]: 0.86 |
| 2.93 | Cc1nn(-c2ccccc2Cl)nc1NC(=O)c1ccccc1C(F)(F)F [Compound I-2-21] |  |
| 2.77 | O=C(Nc1ccn(-c2c(F)cccc2F)n1)c1cccnc1OC(F)(F)F [Compound I-1-250] |  |
| 2.27 | O=C(Nc1ccn(-c2ccccc2Cl)n1)c1cccnc1I [Compound I-1-369] |  |
|  | Nc1ccn(-c2nc(F)c(F)cc2F)n1 [1-(3,5,6-Trifluoropyridin-2-yl)-1H-pyrazole-3-amine] | chromatographic logP [1]: 1.15 |
| 2.71 | Cc1nc(-n2ccc(NC(=O)c3ccccc3Br)n2)c(F)cc1F [Compound I-1-442] |  |
|  | N#Cc1c(Cl)ccnc1-n1ccc(NC(=O)c2ccccc2C(F)(F)F)n1 [Compound I-1-586, N-[1-(4-Chloro-3-cyanopyridin-2-yl)-1H-pyrazol-3-yl]-2-(trifluoromethyl)benzamide] | chromatographic logP [1]: 2.67 |
| 2.14 | CSc1ncccc1C(=O)Nc1ccn(-c2ncc(F)cc2F)n1 [Compound I-1-461] |  |
| 2.99 | O=C(Nc1ccn(-c2ncc(Cl)cc2F)n1)c1ccsc1I [Compound I-1-592] |  |
| 2.37 | O=C(Nc1ccn(-c2ccccc2Br)n1)c1cccnc1Cl [Compound I-1-57] |  |
| 2.64 | Cc1ccsc1C(=O)Nc1ccn(-c2c(F)cccc2F)n1 [Compound I-1-103] |  |
| 3.47 | CCC(C)n1ncc(I)c1C(=O)Nc1ccn(-c2c(F)cccc2F)n1 (stereo not drawn) [Compound I-1-245] |  |
| 2.14 | O=C(Nc1ccn(-c2c(F)cccc2F)n1)c1ncncc1Cl [Compound I-1-330] |  |
|  | CCOc1c(Cl)cccc1-n1ccc(N)n1 [1-(3-Chloro-2-ethoxyphenyl)-1H-pyrazole-3-amine] | chromatographic logP [1]: 2.13 |
| 3.19 | Cn1nc(C(F)(F)F)c(Br)c1C(=O)Nc1ccn(-c2ncc(F)cc2F)n1 [Compound I-1-522] |  |
| 2.61 | CCn1ncc(Cl)c1C(=O)Nc1ccn(-c2c(F)cccc2F)n1 [Compound I-1-308] |  |
| 2.69 | O=C(Nc1ccn(-c2ncc(F)cc2F)n1)c1sccc1I [Compound I-1-507] |  |
| 3.13 | O=C(Nc1ccn(-c2cccc(F)c2F)n1)c1ccccc1C(F)(F)F [Compound I-1-65] |  |
| 2.50 | Cn1ccc([N+](=O)[O-])c1C(=O)Nc1ccn(-c2c(F)cccc2F)n1 [Compound I-1-239] |  |
| 2.15 | Cn1cc(Br)c(C(=O)Nc2ccn(-c3ncc(F)cc3F)n2)n1 [Compound I-1-520] |  |
| 2.69 | O=C(Nc1ccn(-c2ncccc2C(F)(F)F)n1)c1cccnc1C(F)(F)F [Compound I-1-426] |  |
